Measurements taken from paper PMC9216188, “Expanding the Biological Properties of Alkannins and Shikonins: Their Impact on Adipogenesis and Life Expectancy in Nematodes” (Frontiers in Pharmacology, 2022).
Entries after “also recorded” stand apart in the source; their conditions may differ. Where two headings read alike, the source gives them in different places.

Assays:
[1] = Cell viability of undifferentiated 3T3-L1 cells (CellTiter-Glo); assay type: cell-based, Mouse; settings: mouse; 0.01, 0.1, and 1 μM, 24 h; read-out: cell viability (% of untreated cells)
Description: (§1) Mouse fibroblast 3T3-L1 preadipocytes were kindly donated by the Laboratory of Inorganic Chemistry, School of Chemical Engineering, Aristotle University of Thessaloniki (Thessaloniki, Greece) and cultured in 75 cm^2 cell culture flasks in high-glucose DMEM supplemented with 10% FBS, 100 units/mL penicillin and […] streptomycin at 37°C in 5% CO2 and standard humidity. Medium was changed three times per week, until cells reached confluence. Two days post-confluency (day 0), cells were induced to differentiate by treating them with a differentiation/induction medium containing DMEM supplemented with 0.5 mM IBMX, 1 μM DEX, […] of insulin, and 10% FBS. Three days later (day 3), the medium was replaced with DMEM containing 10% FBS and 1 μg/ml insulin for two more days, after which (day 5) the medium was changed to DMEM with 10% FBS. The medium was replaced every 2 days until cells were harvested on day 11 ([Tsave et al., 2018]).
(§2) Viability of undifferentiated 3T3-L1 cells upon treatment with various concentrations of the hydroxynaphthoquinones was assessed using CellTiter-Glo assay in opaque-walled 96-well plates. This method utilizes the luciferase reaction for quantifying adenosine triphosphate (ATP), which is an indicator of cellular metabolic activity. Through the luciferase reaction, luminescence is generated in proportion to the amount of available ATP. […] Briefly, cells were seeded in a 96-well plate at a density of 3.5 × 10^3 cells and a total volume of 100 μl per well. After 24 h incubation, cells were treated with different concentrations (10 nM–10 μΜ) of the hydroxynaphthoquinones for 24 and 48 h. After the respective incubation times, cells in each condition were treated with a volume of the reagent equal to the volume of cell culture medium present in each well. The luminescence was recorded with a Glomax 96 microplate luminometer (Promega Corporation, United States). Untreated cells served as control samples. Each assay was performed three times, with at least three replicates each.
(§3) All tested compounds were previously dissolved in DMSO. The final concentration of DMSO in each well was lower than 0.1%. To confirm that DMSO at that concentration was inert, a screening was performed at various concentrations (0.00002%–2%) and cell viability was assessed. Cell viability was expressed as the percentage of viability observed in each compound, compared to the untreated cells.

3T3-L1 pre-adipocytes [2] = experiment: as above; assay type: cell-based, Mouse; settings: for inhibition of cell viability: 4 μM; for IC50: Mus musculus, read-out: IC50 (cell viability)
Description: as §1, §2, §3

3T3-L1 pre-adipocytes [3] = experiment: Differentiation of 3T3-L1 cells, lipid quantification by Oil Red O staining; assay type: cell-based, Mouse; settings: for lipid accumulation / fold decrease in lipid accumulation / lipid accumulation (formed lipids): 1 μM, ORO stain, day 11; for lipid accumulation: absence of insulin; for fold decrease in lipid accumulation / lipid accumulation (formed lipids): in the presence of insulin
Description: as §1
(§4) 3T3-L1 pre-adipocytes were differentiated into mature adipocytes following the aforementioned differentiation protocol (vide infra). Briefly, pre-adipocytes were treated with either 10 ng/ml of insulin and/or hydroxynaphthoquinones (100 nM or 1 μΜ). The tested compounds were first dissolved in DMSO and subsequently in the culture medium, with the final concentration of DMSO not exceeding 0.1% v/v. The initial stock concentration was 50 mM. Cells treated with insulin were considered as positive control whereas untreated cells were included as vehicle control. On the 11th day of the differentiation process, cell differentiation was assessed and validated by oil red O staining, as described elsewhere ([Tsave et al., 2016]). Further validation of successful adipogenesis was also confirmed by the relative expression of closely related biomarkers PPAR-γ and adiponectin (ADIPOQ).
3T3-L1 preadipocytes were seeded in 24-well plates at a density of 3.5 × 10^4 cells per well and differentiated as described above. On the 11th day, cells were washed three times with sterile PBS, fixed with formaldehyde 3.7%–4.0% for 20 min and stained with Oil Red O (ORO) solution for 10 min. Next, cells were washed with double distilled water (ddH2O) and stained lipids were observed and imaged under an inverted microscope, as described elsewhere ([Tsave et al., 2016]). The analysis and quantification of lipid accumulation—based on the amount of ORO dye—was performed by using ImageJ software (National Institutes of Health, United States). In brief, the RGB images with the stained lipids were converted to 8-bit grayscale (Image → Type → 8-bit). Next, a manual threshold was set (Image → Adjust → Threshold) for each sample and the stained areas were measured (Analyze → Measure) ([Mehlem et al., 2013]).

PPAR-γ [4] = experiment: RT-PCR relative mRNA expression of PPAR-γ in differentiated 3T3-L1 cells; assay type: cell-based, Mouse; settings: day 11
Description: as §4
(§5) Total RNA was extracted from cells on the 11th day of the differentiation protocol, using TRItidy-G reagent. The concentration and purity (absorbance ratio 260/280) of the extracted RNA were measured with a NanoDrop™ 2000c spectrophotometer (Thermo Fisher Scientific, United States). Synthesis of cDNA was performed with the iScript cDNA synthesis kit according to manufacturer instructions. RT-PCR was run on Rotor Gene Q (Qiagen) using the iTaq Universal SYBR Green Supermix and appropriate reagents (Qiagen, United States).
(§6) Customized primers were used from Qiagen for adiponectin (Mm_Adipoq_1_SG, NM_009605, Q01048047), GAPDH (Mm Gapdh_3_SG, QT01658692) and mPPAR-γ forward 5′-GTCAGCGACTGGGACTTTTC-3′ and reverse 5′-CGAGGACATCCAAGACAACC-3’.

ADIPOQ [5] = experiment: RT-PCR relative mRNA expression of ADIPOQ in differentiated 3T3-L1 cells; assay type: cell-based, Mouse; settings: day 11
Description: as §4, §5, §6

C. elegans N2 wild-type = experiment: C. elegans survival assay (nematocidal activity); assay type: in vivo, Caenorhabditis elegans; settings: for % Survival after 10 days ±SD: N2 worms
Description: Caenorhabditis elegans wild-type var. Bristol N2, SS104 [glp-4 (bn2ts)] and Escherichia coli OP50 were provided by the Caenorhabditis Genetics Center (University of Minnesota, United States). Media and NGM agar plates have been prepared as described before ([Zwirchmayr et al., 2020]). OP50 were grown in LB medium for 8 h at 37°C, then harvested by centrifugation, washed twice with ddH2O and suspended in S-complete medium at 100 mg/ml. Worms were maintained on NGM agar plates inoculated with OP50. Synchronized cultures were prepared by egg-prep method ([Porta-de-la-Riva et al., 2012]) and experiments started at the […].
The survival assay was performed as described before: Briefly, a suspension of 5–18 synchronized L1 larvae (N2 wild-type) in S-complete medium were manually seeded into 96-well plates. OP50 at a concentration of 6 mg/ml was added immediately and worms were kept at 25°C. The following day, when all worms reached the L3 stage, the sterilizing-agent 5-Fluorodeoxyuridine (FUdR; 0.12 mM final; Sigma-Aldrich, F0503) was added to keep the population synchronized. The next day, samples were added in triplicate wells to the adult worm culture with DMSO as a carrier at a final concentration of 1%. The number of living worms in each well was counted on day 0, 3, 5, 7 and 10 of the treatment. The worms were oxygenized every 3 days and OP50 were added on day 5 of adulthood to prevent starvation. Results of three parallel experiments are presented as bar charts and are given as the mean survival rate of worms.

C. elegans = test system: C. elegans; parameters: method as in Hunt et al., 2011; settings: 100 to 500 μM, applied to solid agar medium ref Hunt et al., 2011; cited from earlier work
3T3-L1 pre-adipocytes [6] = test system: 3T3-L1 pre-adipocytes; parameters: method as in Lee et al., 2010; Gwon et al., 2013; Ha et al., 2016; settings: 0.5–2 μM ref Lee et al., 2010; Gwon et al., 2013; Ha et al., 2016; cited from earlier work
PPAR-γ [7] = test system: PPAR-γ; parameters: method as in Lee et al., 2010; Gwon et al., 2013; settings: 0.5–2 μM ref Lee et al., 2010; Gwon et al., 2013; cited from earlier work
ADIPOQ [8] = test system: ADIPOQ; parameters: method as in Lee H.-Y. et al., 2009; settings: 2 μM ref Lee H.-Y. et al., 2009; cited from earlier work
[9] = compound alone, absence of insulin

Row | Compound | IC50 (3T3-L1 pre-adipocytes [2]; 3T3-L1 cells, 24 h) [nM] | lipid accumulation (3T3-L1 pre-adipocytes [3]) [%] | PPAR-γ mRNA expression, fold increase (PPAR-γ [4]; compound together with insulin) [fold] | ADIPOQ mRNA expression, fold increase (ADIPOQ [5]; [9]) | ADIPOQ mRNA expression, fold increase (ADIPOQ [5]; compound together with insulin) | lipid accumulation (formed lipids) (3T3-L1 pre-adipocytes [3]) | also measured
1 | CC(C)=CC[C@H](O)C1=CC(=O)c2c(O)ccc(O)c2C1=O [A, Alkannin] | < 3000 | 1.56 | 0.20 | strongest inhibition | not showing any increase at all | – | viability [1]: > 146%; inhibition of cell viability (3T3-L1 pre-adipocytes [2]; 24 h): more than 90%; fold decrease in lipid accumulation (3T3-L1 pre-adipocytes [3]): 37 fold; inhibition of the formation of lipids (3T3-L1 pre-adipocytes [3]; in the presence of insulin (Figure 4)): ~100%
2 | CC(=O)O[C@H](CC=C(C)C)C1=CC(=O)c2c(O)ccc(O)c2C1=O [ACS, Acetyl-shikonin] | – | – | – | – | – | – | concentrations showing reduced cell viability (3T3-L1 pre-adipocytes [2]; 24 h): > 4 µM
3 | CC(C)=CC[C@@H](OC(=O)C=C(C)C)C1=CC(=O)c2c(O)ccc(O)c2C1=O [DMAS, β,β-Dimethyl-acryl-shikonin] | – | 15.65 | 4.71 | 3.03 fold | 3.24 fold | 9.24% | concentrations showing reduced cell viability (3T3-L1 pre-adipocytes [2]; mouse, 24 h): > 4 µM; PPAR-γ mRNA expression, fold increase (PPAR-γ [4]; [9]): 8.37 fold; % Survival after 10 days ±SD (C. elegans N2 wild-type; 15 μg/ml): 73.87 ± 1.61 %; % Survival after 10 days ±SD (C. elegans N2 wild-type; 60 μg/ml): 62.22 ± 17.36 %
4 | CC(C)=CCCC1=CC(=O)c2c(O)ccc(O)c2C1=O [DS, Deoxy-shikonin] | – | 1.78 | 5.08 | strongest inhibition; also recorded: complete impediment of ADIPOQ expression | 4.85 fold | exceeded 10% | concentrations showing reduced cell viability (3T3-L1 pre-adipocytes [2]; 24 h): > 4 µM
5 | CC(C)=CC[C@@H](OC(=O)CC(C)C)C1=CC(=O)c2c(O)ccc(O)c2C1=O [IVS, Isovaleryl-shikonin] | 8660 | – | – | – | – | – | concentrations showing reduced cell viability (3T3-L1 pre-adipocytes [2]; mouse, 24 h): > 4 µM
6 | O=C1C=CC(=O)c2c(O)ccc(O)c21 [NAPH, Naphthazarin] | – | 5.74 | 5.2 | 1.79 fold | 2.13 fold | exceeded 10% | IC50 (3T3-L1 pre-adipocytes [2]; 3T3-L1, 24 h): < 3000 nM; % Survival after 10 days ±SD (C. elegans N2 wild-type; 15 μg/ml): 0.00 ± 0.00 %; worms surviving the first 3 days of treatment (C. elegans N2 wild-type; 15 μg/ml, day 3): 50%; % Survival after 10 days ±SD (C. elegans N2 wild-type; 60 μg/ml): 0.00 ± 0.00 %; nematodes dead at the third day of treatment (C. elegans N2 wild-type; 60 μg/ml, day 3): ~100%; effect on lifespan of C. elegans (C. elegans): extend the lifespan
7 | CC(C)=CC[C@@H](O)C1=CC(=O)c2c(O)ccc(O)c2C1=O [S, Shikonin] | < 3000 | 2.58 | 1.27 | 2.4 fold | < 1 fold | – | viability [1]: > 146%; inhibition of cell viability (3T3-L1 pre-adipocytes [2]; 24 h): more than 90%; fold decrease in lipid accumulation (3T3-L1 pre-adipocytes [3]): 22 fold; effect on adipogenesis (3T3-L1 pre-adipocytes [6]): inhibit adipogenesis; effect on expression of PPAR-γ (PPAR-γ [7]): significantly inhibited; effect on ADIPOQ expression (ADIPOQ [8]): strongly inhibit
8 | CC(C)=CC[C@@H](OC(=O)CC(C)(C)O)C1=CC(=O)c2c(O)ccc(O)c2C1=O [β-hydroxy-isovaleryl-shikonin, reference compound] | – | – | – | – | – | – | effect on adipogenesis (3T3-L1 pre-adipocytes [6]): inhibit adipogenesis
9 | insulin: human recombinant insulin, positive control of differentiation [reference compound] | – | – | – | – | – | – | PPAR-γ mRNA expression, fold increase (PPAR-γ [4]; positive control sample (insulin group)): 10.78 fold; ADIPOQ mRNA expression, fold increase (ADIPOQ [5]; positive control sample (insulin)): 8.67 fold
